Measured values: patent US7186744B2, “Prostamides for the treatment of glaucoma and related diseases” (Allergan, Inc., priority 2003, dated 2007)
Marks after values point to notes of the source that are not given here.

Test system: dogs (Beagle)
Assay: Intraocular pressure studies by pneumatonometry in dogs
Type: in vivo
Conditions: conscious Beagle dogs, topical 25 μL drop, 0.03% drug
Experimental: Intraocular pressure studies were carried out for compounds 1–3 by pneumatonometry in dogs (Beagle) of both sexes (10–15 kg). The animals remained conscious throughout the study and were gently restrained by hand. Drugs were administered topically to one eye as a 25 μL volume drop comprising 0.03% drug, 0.1% polysorbate 80:10 mM TRIS, the other eye received 0.1% polysorbate 80:10 mM TRIS. Proparacaine (0.1%) was used for corneal anesthesia during tonometry. Intraocular pressure was determined just before drug administration and at 2, 4 and 6 hours thereafter on each day of the 5 day study. […] Drug was administered immediately after the first IOP reading.

[1] = 0 hrs (just before drug administration)

| Structure (SMILES) | Change in Intraocular Pressure (IOP) [1] | Change in Intraocular Pressure (IOP) (2 hrs) | Change in Intraocular Pressure (IOP) (4 hrs) | Change in Intraocular Pressure (IOP) (6 hrs) | Change in Intraocular Pressure (IOP) (24 hrs) |
| --- | --- | --- | --- | --- | --- |
| CCCCC[C@H](O)/C=C/[C@@H]1[C@@H](C/C=C\CCCC(=O)NCCc2c[nH]c3ccc(O)cc23)[C@@H](O)C[C@H]1O [Compound 3, (Z)-7-[(1R,2R,3R,5S)-3,5-Dihydroxy-2-((E)—(S)-3-hydroxy-oct-1-enyl)-cyclopentyl]-hept-5-enoic acid [2-(5-hydroxy-1H-indol-3-yl)-ethyl]-amide] | 0 | −3.2* | −5.8* | −7.6** | −2.2 |
| CCCCC[C@H](O)/C=C/[C@@H]1[C@@H](C/C=C\CCCC(=O)NCCc2ccc(O)c(O)c2)[C@@H](O)C[C@H]1O [Compound 2, (Z)-7-[(1R,2R,3R,5S)-3,5-Dihydroxy-2-((E)—(S)-3-hydroxy-oct-1-enyl)-cyclopentyl]-hept-5-enoic acid [2-(3,4-dihydroxy-phenyl)-ethyl]-amide] | 0 | −3.8* | −3.2** | −3.2** | −1.1* |
